This is an account of results in PMC9623576, “Semisynthesis and Evaluation of Anti-Inflammatory Activity of the Cassane-Type Diterpenoid Taepeenin F and of Some Synthetic Intermediates” (Journal of Natural Products, 2022).

Read-outs that look alike come from different tables or passages of the source.

Series [1] relates to NO production in LPS-activated RAW 264.7 macrophage murine cells. Briefly: Inhibition of NO (nitrite) release, Griess reaction. The class given is cell-based. How it is done:
The concentrations of nitrites were determined by the Griess reaction.
(§1) A stock solution was frozen and stored at […]. Before the experiments, this solution was diluted in cell-culture medium to the adequate concentrations for each experiment. […] For nitrite assay, subcytotoxic concentrations (3/4IC50, 1/2IC50, and 1/4IC50), were used to ensure that the NO inhibitory potential was not due to a possible cytotoxic effect. The concentrations of 3/4IC50, 1/2IC50, and 1/4IC50 were used for the cell-cycle analysis. All experiments were measured and compared with control (untreated cells after 24, 48, or 72 h of treatment.)
Nitrites production was analyzed through the Griess reaction. This nitrite concentration was used as an indicator of NO production.[35] Briefly, RAW 264.7 cells were plated at 6 × 10^3 cells/well in 24-well cell culture plates and supplemented with 10 μg/mL of lipopolysaccharide (LPS). […] The supernatants were collected at 48 and 72 h, to determine their nitrite concentrations and/or stored at −80 °C for further use.
The Griess reaction was performed taking 150 μL of supernatant test samples or sodium nitrite standard (0–120 μM) and mixed with 25 μL of Griess reagent A (0.1% N,N-(1-naphthyl) ethylenediaminedihydrochloride) and 25 μL of Griess reagent B (1% sulfanilamide in 5% of phosphoric acid), in a 96-well plate. After 15 min of incubation at room temperature, the absorbance was measured at 540 nm in an ELISA plate reader (Tecan Sunrise MR20–301, TECAN, Austria). The absorbance was referred to a nitrite standard curve to determine the concentration of nitrite in the supernatant of each experimental sample. The percentage of NO production was determined, assigning 100% at the increase between negative control (untreated cells) and positive control (cells only treated with 10 μg/mL of LPS).

Series [2] relates to B16-F10 murine melanoma cells. The experiment in a line: MTT cancer cell proliferation assay, B16-F10. Type of series: cell-based. The conditions noted are these: B16-F10, 72 h. How it is done:
(§2) The five newly synthesized diterpenoids were evaluated for their cytotoxic effects against three selected tumor cell lines, B16-F10 murine melanoma cells, HT29 human colon adenocarcinoma cells, and HepG2 human hepatocarcinoma cells at increasing concentrations (0–100 μg/mL). After 72 h of treatment, cell viability was determined by an MTT assay, where the tetrazolium dye was transformed into formazan in the mitochondria of viable cells, its absorbance measured at 570 nm and expressed as a percentage with respect to untreated control cells (S3 Figure.). The concentrations required for 20, 50, and for 80% growth inhibition (IC20, IC50, and IC80) were also determined for each compound (Table 2).
as §1
(§3) Human colorectal adenocarcinoma cell line HT29 (ECACC no. 9172201; ATCC no. HTB-38), human hepatocarcinome cell line HepG2 (ECACC no. 85011430), mouse melanoma cells B16-F10 (ATCC no. CRL-6475), and murine monocyte/macrophage-like RAW 264.7 cell line (ATCC no, TIB-71) were cultured in DMEM (Dulbecco’s modified Eagle’s medium) supplemented with 2 mM glutamine, 10% heat-inactivated FCS (fetal calf serum), 10 000 units/mL of penicillin and 10 mg/mL of streptomycin, (for all cancer cell lines), 50 μg/mL of gentamicin (only for RAW 264.7 cell line), and incubated at 37 °C, in an atmosphere of 5% CO2 and 95% humidity. The culture media were changed every 48 h, and the confluent cultures were separated with a trypsin solution (0.25% EDTA). In all experiments, monolayer cells were grown to 80–90% confluence, in sterile cell culture flasks. All cell lines used were purchased from the cell bank of the University of Granada, Spain.
(§4) The cytotoxicity assay was performed by the MTT (3-(4,5-dimethylthiazol-2-yl)-2,5-diphenyltetrazolium bromide) method.[21] To quantify the cytotoxicity of compounds, the fresh and suspended cells were seeded in 96-well plates to a volume of 100 μL at 6.0 × 10^3 cells/mL for HT29 and RAW 264.7 cell lines, at 5.0 × 10^3 cells/mL for B16-F10 cells and 15.0 × 10^3 for Hep G2. Then, cells were incubated to adhere over 24 h at 37 °C with 5% CO2. All tested compounds were prepared in fresh growth medium. After 24 h, an additional 100 μL of medium with the corresponding concentrations of products (only medium in the control wells) was added to the corresponding wells, at various final concentrations (0–100 μg/mL). Finally, after 72 h of incubation at 37 °C with 5% CO2, the medium with the compounds were removed and 100 μL of MTT solution (0.5 mg/mL) in 50% of PBS 50% of medium was added to each well. After 1.5 h of incubation, formazan was resuspended in 100 μL of DMSO, and each concentration was tested in triplicate. Relative cell viability, with respect to untreated control cells, was measured by absorbance at 570 nm on an ELISA plate reader (Tecan Sunrise MR20-301, TECAN, Austria).
(§5) Cytotoxicity experimental data were fitted to a sigmoidal function (y = ymax/(x/a)^−b) by nonlinear regression. […] These analyses were performed using SigmaPlot 12.5 software. Similar analyses were performed to obtain the IC50 of NO production. All data shown here are representative of at least two independent experiments performed in triplicate. All quantitative data were summarized as the mean ± standard deviation (SD).

Series [3] concerns RAW 264.7 monocyte/macrophage murine cells. The experiment in a line: MTT growth inhibition on RAW 264.7 cells. The class given is cell-based. As to conditions: Mus musculus, RAW264.7, RAW 264.7, MTT; for IC20: 20% growth inhibition; for IC80: 80% growth inhibition. How it is done: as §1
In all experiments, monolayer cells were grown to 80–90% confluence, in sterile cell culture flasks. All cell lines used were purchased from the cell bank of the University of Granada, Spain.
The cytotoxicity assay was performed by the MTT (3-(4,5-dimethylthiazol-2-yl)-2,5-diphenyltetrazolium bromide) method.[21] […] All tested compounds were prepared in fresh growth medium. After 24 h, an additional 100 μL of medium with the corresponding concentrations of products (only medium in the control wells) was added to the corresponding wells, at various final concentrations (0–100 μg/mL). […] After 1.5 h of incubation, formazan was resuspended in 100 μL of DMSO, and each concentration was tested in triplicate.
Cytotoxicity experimental data were fitted to a sigmoidal function (y = ymax/(x/a)^−b) by nonlinear regression. […] Similar analyses were performed to obtain the IC50 of NO production. All data shown here are representative of at least two independent experiments performed in triplicate. All quantitative data were summarized as the mean ± standard deviation (SD).

The test system of series [4] is HT29 human colon adenocarcinoma cells. Briefly: MTT cancer cell proliferation assay, HT29. Type of series: cell-based. The method, then:
as §2, §1, §3, §4, §5

The subject of series [5] is HepG2 human hepatocarcinoma cells. The experiment in a line: MTT cancer cell proliferation assay, HepG2. As to conditions: HepG2, 72 h. Type of series: cell-based. How it is done:
as §2, §1, §3, §4, §5

Series [6] concerns NO release. As to conditions: read-out: IC50 of NO inhibitory effect; cited from earlier work.
Series [7] relates to HepG-2 cancer cell line. The arrangement: method as in PMID 23806110. The conditions noted are these: HepG-2 cancer cell line ref 10; cited from earlier work.
Series [8] deals with MCF-7 cancer cell line. The arrangement: method as in PMID 23806110. As to conditions: MCF-7 cancer cell line ref 10; cited from earlier work.
Setting [9] is: Mus musculus, MTT, read-out: IC50.
The mark [10] stands for this setting: Mus musculus, MTT, read-out: IC20.
[11] abbreviates: Homo sapiens, HT-29, HT29, 72 h, MTT.
[12] abbreviates: Homo sapiens, HT-29, HT29, 72 h, MTT, read-out: IC20.
[13] abbreviates: Homo sapiens, MTT, read-out: IC50.
Where [14] appears, read: Homo sapiens, MTT, read-out: IC20.

For the molecule `COC(=O)[C@]1(C)CCC[C@]2(C)c3cc4c(c(C)c3CC[C@@H]12)CC(=O)O4` [Compound 6, (4R,4aR,11bS)-Methyl 4,7,11b-trimethyl-9-oxo-1,2,3,4,4a,5,6,8,9,11b-decahydrophenanthro[3,2-b]furan-4-carboxylate], the “inhibition of NO release” value in [1] (48 h, 1/2IC50 concentration) worked out at 77.80%; in series [1] (48 h, 3/4IC50 concentration) it was 88.33%; in series [1] (72 h, 3/4IC50 concentration), 98%. The IC50 in [2] (MTT) is above 100 µM; in series [2] (MTT, listed as Taepeenin F (6)) it was 257 ± 24 µM; in [4] (HT29, 72 h, MTT) it was above 100 µM; in series [4] (HT29, 72 h, MTT, listed as Taepeenin F (6)), 391 ± 39.5 µM; in [5] (MTT) it was above 100 µM; in series [5] (MTT, listed as Taepeenin F (6)), 237 ± 9.69 µM. Besides, the IC20 in [2] (Mus musculus) was found to be 234 ± 4.12 µM; in series [3] it was 111 ± 24 µM; in series [4] (Homo sapiens, HT-29, 72 h) it was 124.2 ± 1.11 µM; in series [5] (Homo sapiens), 112 ± 22 µM. Besides, the 80% effect level in [3] (IC80) was put at 254.7 ± 1.48 µM.
For `COC(=O)[C@]1(C)CCC[C@]2(C)c3cc(O)c(C(C)C)c(C)c3CC[C@@H]12` [Compound 17, (1R,4aS,10aR)-Methyl 6-hydroxy-7-isopropyl-1,4a,8-trimethyl-1,2,3,4,4a,9,10,10a-octahydrophenanthrene-1-carboxylate], the “inhibition of NO release” value in [1] (48 h, 1/2IC50 concentration) came to 86.5%; in series [1] (48 h, 3/4IC50 concentration), 89.70%; in series [1] (72 h, 3/4IC50 concentration), 99%. For the same molecule, the IC50 in series [2] (MTT, read-out: IC50) is 133 ± 8.17 µM; in [2] (setting [9]) it was above 85.6 µM; in [3], 129 ± 7.06 µM; in [5] (MTT, read-out: IC50), 137 ± 13.9 µM; in [5] (setting [13]) it was above 85.6 µM. For the same molecule, the concentration for an effect of 80% (IC80) amounted to 259.3 ± 1.35 µM in series [2] (Mus musculus, MTT); 247 ± 6.3 µM in series [3]; 311 ± 8.32 µM in series [4] (setting [11]); 274 ± 41.2 µM in series [5] (Homo sapiens, MTT). For the same molecule, the IC20 is 33.3 ± 5.94 µM in [2] (setting [10]), 27.8 ± 8.38 µM in [3], 122 ± 24.2 µM in [4] (setting [12]) and 32.6 ± 3.41 µM in [5] (setting [14]).
For `COC(=O)[C@]1(C)CCC[C@]2(C)c3cc(O)c(CO)c(C)c3CC[C@@H]12` [Compound 22, (1R,4aS,10aR)-Methyl 6-hydroxy-7-(hydroxymethyl)-1,4a,8-trimethyl-1,2,3,4,4a,9,10,10a-octahydrophenanthrene-1-carboxylate], the melting point is 98 to 101 °C. The “inhibition of NO release” value in series [1] (48 h, 1/2IC50 concentration) is 70.94%. Also, the “inhibition of NO release” value in series [1] (48 h, 3/4IC50 concentration) stood at 86.96%. In addition, in [1] (72 h, 3/4IC50 concentration), the “inhibition of NO release” value amounted to 96%. The IC50 in [2] (MTT, read-out: IC50) came to 102 ± 4.36 µM. Further, the IC50 in series [2] (setting [9]) is above 85.6 µM. The molecule also had an IC80 in series [2] (Mus musculus, MTT) of 122 ± 4.22 µM. Moreover, in series [2] (setting [10]), the IC20 worked out at 85.5 ± 6.16 µM. In series [3], the IC50 came to 101.8 ± 0.52 µM, the IC20 came to 92.1 ± 1.13 µM and the IC80 stood at 114.2 ± 0.17 µM. Moreover, the IC50 in [4] (HT29, 72 h, MTT, read-out: IC50) worked out at 85.6 ± 4.99 µM. In series [4] (Homo sapiens, HT-29, 72 h, HT29, 72 h, MTT, read-out: IC50), the IC50 was above 85.6 µM. Moreover, in series [4] (setting [11]), the IC80 stood at 114 ± 7.35 µM. Besides, in [4] (setting [12]), the IC20 came to 67.5 ± 4.61 µM. In addition, the IC50 in series [5] (MTT, read-out: IC50) was 125 ± 2.36 µM. Further, the IC50 in [5] (setting [13]) is above 85.6 µM. In addition, the IC80 in [5] (Homo sapiens, MTT) came out at 141 ± 6.51 µM. For the same molecule, in series [5] (setting [14]), the IC20 came to 110.1 ± 0.84 µM.
For caesalmin A, in series [6], the IC50 is around 25.4 µM.
For the molecule caesalpin A [Compound 8], the IC50 in series [7] was 4.7 µM; in series [8] it was 2.1 µM.
